# Results reported in US6592885B2, “Method for making infection-resistant fabricated textile articles for biomedical applications” (priority 2001, dated 2003).
# Key:
# [1] = system: S. aureus; experiment: MIC/MBC of native and heated Cipro/Oflox (heat stability); format: cell-based; conditions: Staphylococcus aureus, n=6; for MIC: 10^6 S. aureus/ml, TSB; for MBC: broth backplated on agar
# Method: An inoculum of S. aureus was diluted to obtain a bacterial concentration of 10^6 S. aureus/ml. […] V. Mosby, St. Louis, 1986]. Antibiotic concentrations in the assay were […].
# [2] = Structural stability to heating conditions, dye bath analysis via HPLC; format: physicochemical; conditions: heating conditions utilized in pad/heat dyeing; data not shown
# [3] = antibiotic heated to 135° C. for 1 hour (dye bath conditions), 24 hours
"MIC [1, 3] [µM]","MIC ([1]; native antibiotic, turbidity after 24 hours) [µM]",structural stability upon dye bath analysis via HPLC [2],Structure (SMILES),"MBC [1, 3] [µM]","MBC ([1]; native antibiotic, 24 hours) [µM]"
0.78,0.78,no structural degradation,"CC1COc2c(N3CCN(C)CC3)c(F)cc3c(=O)c(C(=O)O)cn1c23 (stereo not shown) [Oflox, Ofloxacin]",9.5,9.5
,,,"O=C(O)c1cn(C2CC2)c2cc(N3CCNCC3)c(F)cc2c1=O [Cipro, Ciprofloxacin]",6.5,6.5
